#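 How tested: cells in 96-well plates exposed to compound for 48 hours at five concentrations. GI50: concentration for 50% inhibition of growth. TGI denotes the concentration required for complete inhibition of growth.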
# Experiments:
# Experiment in all cases: NCI-60 cell line screen, 48 h
# EKVX NSCLC = test system: EKVX NSCLC
# HCT-116 colon = test system: HCT-116 colon
# HOP-62 NSCLC = test system: HOP-62 NSCLC
# MDA-MB-435 = test system: MDA-MB-435
# OVCAR-4 ovarian = test system: OVCAR-4 ovarian
# OVCAR-5 ovarian = test system: OVCAR-5 ovarian
# OVCAR-8 ovarian = test system: OVCAR-8 ovarian
# RPMI-8226 leukemia = test system: RPMI-8226 leukemia
# SF-295 CNS = test system: SF-295 CNS
# T-47D breast = test system: T-47D breast
Compound,GI50 (EKVX NSCLC) [µM],TGI (EKVX NSCLC) [µM],GI50 (HCT-116 colon) [µM],TGI (HCT-116 colon) [µM],GI50 (HOP-62 NSCLC) [µM],TGI (HOP-62 NSCLC) [µM],GI50 (MDA-MB-435) [µM],TGI (MDA-MB-435) [µM],GI50 (OVCAR-4 ovarian) [µM],TGI (OVCAR-4 ovarian) [µM],GI50 (OVCAR-5 ovarian) [µM],TGI (OVCAR-5 ovarian) [µM],GI50 (OVCAR-8 ovarian) [µM],TGI (OVCAR-8 ovarian) [µM],GI50 (RPMI-8226 leukemia) [µM],TGI (RPMI-8226 leukemia) [µM],GI50 (SF-295 CNS) [µM],TGI (SF-295 CNS) [µM],GI50 (T-47D breast) [µM],TGI (T-47D breast) [µM]
COc1ccc(-c2ccc(/C=N/n3c(COc4ccc(Cl)cc4Cl)n[nH]c3=S)o2)c([N+](=O)[O-])c1,48.9,> 100,17.5,31.3,19.8,35.7,18.1,38,28.9,72.7,21.3,47.6,29.7,> 100,11.7,43.7,18,36.5,44,> 100
O=C(CC(=O)CC(O)(C(F)(F)F)C(F)(F)F)CC(O)(C(F)(F)F)C(F)(F)F,,> 10,,> 10,,> 10,,> 10,,> 10,,> 10,,> 10,,> 10,,> 10,,> 10
Cc1ccc2c(ccc3c[n+]4c5ccccc5ccc4n32)c1,0.484,25.4,1.85,7.51,1.28,12.6,1.13,2.55,1.32,4.64,4.42,45.1,0.688,9.72,2.72,18.8,1.56,6.91,0.618,3.59
COc1ccc(N2C(C)=C(C#N)C34C(=O)N(c5ccccc5)C(=O)C3=C(O)C=CC24O)cc1 (stereo not given),22.3,85.8,9.73,25.5,22.7,75.8,5.5,28.7,24.4,94.5,18.1,73.8,23.3,> 100,3.44,19.3,3.49,15.1,13,33.8
COC1(C(=O)N[C@@H](C)c2ccc(-n3cc(F)cn3)nc2)CCC(c2nc(C)cc(Nc3cc(C)[nH]n3)n2)CC1 (stereo not given in full),0.688,2.94,2.61,14,1.34,14.6,8.27,21.1,1.94,17.9,1.4,12.5,3.74,25.5,7.18,40,1.17,3.95,2.17,21.7
C[C@@H](C(=O)Nc1ccc(Cl)cc1)C1CCC(c2ccnc3ccc(F)cc23)CC1 (stereo not given in full),4.54,61.6,3.13,21.6,19.4,> 100,9.08,54.9,5.93,> 100,17.8,> 100,21,> 100,2.85,13.9,8.12,> 100,3.36,46.1

# Source: PubChem BioAssay (NCI)
